We go through two compounds from publication PMC12362587, “Untargeted Diversity-Oriented Synthesis for the Discovery of New Antitumor Agents: An Integrated Approach of Inverse Virtual Screening, Bioinformatics, and Omics for Target Deconvolution” (Journal of Medicinal Chemistry, 2025).

The target in test [1] is T1, Vascular Endothelial Growth Factor Receptor (VEGFR-2)/KDR (Homo sapiens, UniProt P35968).
T1 construct: Eurofins (contract assay)
Description: Kinase Enzymatic Radiometric [10 uM ATP] KinaseProfiler LeadHunter Assay. Format: biochemical. The following applies: Eurofins, read-out: EC50 or IC50, VEGFR-2/KDR. An excerpt: (§1) For displacement assays on G-protein coupled receptor 55 (GPR55), Vasopressin V2 receptor (V2R), Adenosine A1 receptor (A1AR), Fibroblast growth factor receptor 1 (FGFR1), Vascular endothelial growth factor receptor 2 (VEGFR2), Platelet-derived growth factor receptor beta (PDGFRB), Vascular endothelial growth factor receptor 1 (VEGFR1), Thromboxane Synthase (TXS) and Phosphodiesterase 10A (PDE10A), we commissioned the Eurofins company which employed its specific experimental methods, accessible at the link: https://www.eurofins.com/.

Test [2] deals with T2, Fibroblast Growth Factor Receptor 1 (FGFR1) (Homo sapiens, UniProt P11362).
T2 construct: Eurofins (contract assay)
T2 sequence (P11362 22-822): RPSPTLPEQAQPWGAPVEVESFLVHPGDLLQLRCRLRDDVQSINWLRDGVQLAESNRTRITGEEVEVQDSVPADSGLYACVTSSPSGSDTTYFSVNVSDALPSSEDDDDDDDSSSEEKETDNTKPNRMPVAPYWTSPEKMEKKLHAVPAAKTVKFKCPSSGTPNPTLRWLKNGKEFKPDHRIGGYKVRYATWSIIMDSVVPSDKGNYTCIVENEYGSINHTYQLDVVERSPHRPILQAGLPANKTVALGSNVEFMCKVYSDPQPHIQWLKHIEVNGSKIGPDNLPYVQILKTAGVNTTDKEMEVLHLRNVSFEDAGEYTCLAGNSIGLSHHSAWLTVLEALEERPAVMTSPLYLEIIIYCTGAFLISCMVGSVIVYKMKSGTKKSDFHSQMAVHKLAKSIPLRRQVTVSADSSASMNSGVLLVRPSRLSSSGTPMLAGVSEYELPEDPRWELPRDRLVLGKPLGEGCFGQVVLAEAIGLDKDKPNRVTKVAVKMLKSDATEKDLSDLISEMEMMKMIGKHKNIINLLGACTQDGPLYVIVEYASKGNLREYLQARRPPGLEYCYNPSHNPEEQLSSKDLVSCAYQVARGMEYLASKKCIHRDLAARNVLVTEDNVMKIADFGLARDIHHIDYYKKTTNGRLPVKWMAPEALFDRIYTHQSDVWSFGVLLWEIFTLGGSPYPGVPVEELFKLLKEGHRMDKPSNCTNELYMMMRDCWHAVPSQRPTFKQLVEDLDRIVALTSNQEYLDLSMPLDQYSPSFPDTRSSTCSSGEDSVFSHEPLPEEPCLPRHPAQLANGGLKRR
Described as above. Format: biochemical. As to conditions: Eurofins, read-out: EC50 or IC50, FGFR1.
Excerpt: as §1

Test [3] deals with T3, Platelet-Derived Growth Factor Receptor-Beta (PDGFRB) (Homo sapiens, UniProt P09619).
T3 construct: Eurofins (contract assay)
T3 sequence (P09619 33-1106): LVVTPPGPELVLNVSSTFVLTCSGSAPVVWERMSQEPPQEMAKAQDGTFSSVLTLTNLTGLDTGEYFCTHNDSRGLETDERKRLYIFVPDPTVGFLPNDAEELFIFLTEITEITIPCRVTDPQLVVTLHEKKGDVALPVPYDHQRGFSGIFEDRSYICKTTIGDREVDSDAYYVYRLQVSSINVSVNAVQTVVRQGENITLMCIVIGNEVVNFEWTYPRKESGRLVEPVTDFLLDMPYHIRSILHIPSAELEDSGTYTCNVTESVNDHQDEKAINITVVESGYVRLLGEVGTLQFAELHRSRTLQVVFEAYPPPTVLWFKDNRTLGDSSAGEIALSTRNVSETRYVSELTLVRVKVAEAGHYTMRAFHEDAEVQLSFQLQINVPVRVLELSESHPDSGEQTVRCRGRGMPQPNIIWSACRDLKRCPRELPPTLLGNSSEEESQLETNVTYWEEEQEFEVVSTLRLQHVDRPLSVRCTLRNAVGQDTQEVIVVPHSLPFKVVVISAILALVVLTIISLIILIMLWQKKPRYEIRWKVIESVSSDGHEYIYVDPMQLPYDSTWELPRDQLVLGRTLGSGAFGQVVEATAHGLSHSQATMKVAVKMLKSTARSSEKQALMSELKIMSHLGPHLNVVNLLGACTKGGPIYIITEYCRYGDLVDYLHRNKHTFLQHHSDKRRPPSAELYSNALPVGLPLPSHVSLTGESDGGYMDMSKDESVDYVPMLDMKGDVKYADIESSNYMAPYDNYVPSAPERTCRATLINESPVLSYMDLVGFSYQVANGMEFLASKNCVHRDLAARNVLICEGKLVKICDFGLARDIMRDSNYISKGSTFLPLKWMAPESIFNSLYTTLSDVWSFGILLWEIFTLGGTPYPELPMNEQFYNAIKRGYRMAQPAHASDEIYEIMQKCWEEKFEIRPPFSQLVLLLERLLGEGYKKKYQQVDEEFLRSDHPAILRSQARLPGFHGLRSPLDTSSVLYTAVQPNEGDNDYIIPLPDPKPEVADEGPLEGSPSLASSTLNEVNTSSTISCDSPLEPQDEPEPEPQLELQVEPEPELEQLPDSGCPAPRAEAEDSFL
The description is as above. Format: biochemical. The following applies: Eurofins, read-out: EC50 or IC50, PDGFRB.
Excerpt: as §1

Test [4] addresses T4, Vascular Endothelial Growth Factor Receptor-1 Flt-1 (VEGFR1) (FLT1) (Homo sapiens, UniProt P17948).
T4 construct: Eurofins (contract assay)
The description is as above. Format: biochemical. The following applies: Eurofins, read-out: EC50 or IC50, VEGFR1 (FLT1).
Excerpt: as §1

Test [5] has as its target T5, serine/threonine-protein kinase B-raf (V600E) (Homo sapiens, UniProt P15056, V600E).
T5 construct: purchased BPS Bioscience
Description: B-Raf kinase assay (V600E; BPS Bioscience). As to conditions: top concentration 30 μM, read-out: EC50 or IC50, serine/threonine-protein kinase B-raf. Type of test: biochemical. The procedure:
The assay was performed in a volume of 50 μL in a 96-well white plate. The B-Raf kinase assay (V600E; BPS Bioscience, USA) was designed to measure B-Raf kinase activity by the use of Kinase-Glo MAX (Promega, USA), which detects ATP residual following the kinase reaction. For activity measurement, the kinase (final concentration, 2 ng per reaction), Raf substrate and ATP (final concentration, 500 μM), and compounds were incubated for 45 min at 30 °C. The compounds were added at different concentrations in the reaction buffer, starting from a final concentration of 30 μM. Buffer with the same amount of DMSO (1%) was used as a negative control. After the incubation time, Kinase-Glo MAX detection reagent was added for 15 min at room temperature. The generated luminescent signal was read in end point mode using a PerkinElmer AlphaScreen multimodal plate reader (PerkinElmer, Waltham, MA, USA). Experiments were performed in triplicate. IC50 values were calculated with GraphPad Prism 8.0 software by nonlinear dose–response inhibition regression.

The target of test [6] is T6, Poly [ADP-ribose] polymerase tankyrase-1 (Homo sapiens, UniProt O95271).
T6 construct: (TNKS1) enzyme (amino acids 1001–1323; final concentration, 1.5 ng per reaction); purchased BPS Bioscience
T6 sequence (O95271 1001-1323): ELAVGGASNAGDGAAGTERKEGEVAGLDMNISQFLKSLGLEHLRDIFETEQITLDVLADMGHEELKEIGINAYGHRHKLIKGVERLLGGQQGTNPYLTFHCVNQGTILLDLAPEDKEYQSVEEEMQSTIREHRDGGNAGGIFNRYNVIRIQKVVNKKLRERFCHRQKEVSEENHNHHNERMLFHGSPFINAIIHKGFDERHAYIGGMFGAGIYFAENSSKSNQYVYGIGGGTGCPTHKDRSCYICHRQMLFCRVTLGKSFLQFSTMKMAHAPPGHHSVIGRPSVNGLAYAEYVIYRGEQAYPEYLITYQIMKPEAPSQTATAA
Description: TNKS1 (PARP5A) Colorimetric Assay Kit (BPS Bioscience). Type of test: biochemical. The following applies: top concentration 30 μM; read-out: EC50 or IC50, Poly [ADP-ribose] polymerase tankyrase-1. As to the method:
The assay was performed in a volume of 50 μL in a 96-well transparent plate. The TNKS1 assay kit (PARP5A; BPS Bioscience, USA) was performed by first coating the 96-well plate with histone proteins, then left at 4 °C overnight. Next, Poly [ADP-ribose] polymerase tankyrase-1 (TNKS1) enzyme (amino acids 1001–1323; final concentration, 1.5 ng per reaction), a mixture of biotinylated NAD^+ (PARP substrate) and compounds were incubated for 1 h at room temperature. The compounds were added at different concentrations in the reaction buffer, starting from a final concentration of 30 μM. Buffer with the same amount of DMSO (1%) was used as a negative control. After incubation, the plate was treated with streptavidin-HRP followed by the addition of the colorimetric HRP substrate generating a colored solution. The generated signal was read at an absorbance of 450 nm using a microplate reader with UV/vis spectrophotometer (Multiskan Go, Thermo Fisher Scientific, Waltham, MA, USA). Experiments were performed in triplicate. IC50 values were calculated with GraphPad Prism 8.0 software by nonlinear dose–response inhibition regression.

The next test concerns the target human CB2R (Homo sapiens, UniProt P34972). Nature of the test: Competition binding assay, displacement of [3H]-CP-55,940. As to conditions: displacement of [3H]-CP-55,940, HEK-293 membranes; read-out: EC50 or IC50, cannabinoid receptor 2. Further details: host or cells: HEK-293 membranes. The procedure: Binding assays at equilibrium were conducted as described in Di Micco et al., 2024. […]. All compounds were evaluated following the manufacturer’s protocol (PerkinElmer distributed by Revvity, Italy). […] The K i values were calculated using the Cheng-Prusoff equation, based on the IC50 values obtained through GraphPad PRISM software (version 10.2.2). The results are expressed as K i (μM), represented as mean ± SEM, and reflect the average of three independent experiments performed in duplicate.

The subject of the next test is A375 cells. Description: Intracellular ROS measurement (DCFH-DA). Type of test: cell-based, human. As to conditions: 10, 5, 2.5 μM for 2–8 h. As to the method: Cells were treated with compounds 31 and 63 (10, 5, and 2.5 μM) for 2–8 h, and ROS levels were subsequently measured.
The intracellular ROS generation was detected using 10 μM DCFH-DA. This compound is oxidized by ROS to fluorescent […] (DCF) inside the cells. A375 cells were seeded (5 × 10^3 cells/well) in a volume of 100 μL per well in black 96-well OptiPlate (PerkinElmer, USA), allowing them to adhere for 24 h. After, the cells were incubated for 2, 4, and 8 h with compounds (10, 5, and 2.5 μM). Subsequently, the cells were washed twice with PBS and a staining solution containing DCFH-DA in serum-free medium without phenol red was added for 30 min at 37 °C in the dark. The stained cells were washed, and the fluorescence signals (excitation/emission 485 nm/535 nm) were read using a PerkinElmer EnSpire multimode plate reader and expressed as DCFH fluorescence intensity.

Test [7] concerns the target T7, G-protein coupled receptor 55 (Homo sapiens, UniProt Q9Y2T6).
T7 construct: Eurofins (contract assay)
Description: Cell Based Agonist Arrestin LeadHunter Assay. The following applies: Eurofins, read-out: EC50 or IC50, G-protein coupled receptor 55, agonist mode.
Excerpt: as §1

SMILES strings stand for the structures. Where “and” joins values, the source holds several entries; their conditions need not be identical. Equal values may be shown once. Where only a bound is given, the exact number is not on record here.

human CB2R, sequence (P34972 whole entry): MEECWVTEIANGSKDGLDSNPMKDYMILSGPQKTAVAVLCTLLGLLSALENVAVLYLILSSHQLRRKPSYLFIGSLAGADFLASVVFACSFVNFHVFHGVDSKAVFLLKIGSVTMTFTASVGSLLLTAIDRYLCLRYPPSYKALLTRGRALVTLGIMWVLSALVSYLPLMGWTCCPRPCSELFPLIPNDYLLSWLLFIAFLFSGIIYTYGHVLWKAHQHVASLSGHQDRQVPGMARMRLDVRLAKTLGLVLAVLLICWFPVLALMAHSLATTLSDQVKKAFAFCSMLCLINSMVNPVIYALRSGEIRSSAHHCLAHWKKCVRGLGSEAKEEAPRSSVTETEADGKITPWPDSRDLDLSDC
T5 sequence (P15056 whole entry V600E): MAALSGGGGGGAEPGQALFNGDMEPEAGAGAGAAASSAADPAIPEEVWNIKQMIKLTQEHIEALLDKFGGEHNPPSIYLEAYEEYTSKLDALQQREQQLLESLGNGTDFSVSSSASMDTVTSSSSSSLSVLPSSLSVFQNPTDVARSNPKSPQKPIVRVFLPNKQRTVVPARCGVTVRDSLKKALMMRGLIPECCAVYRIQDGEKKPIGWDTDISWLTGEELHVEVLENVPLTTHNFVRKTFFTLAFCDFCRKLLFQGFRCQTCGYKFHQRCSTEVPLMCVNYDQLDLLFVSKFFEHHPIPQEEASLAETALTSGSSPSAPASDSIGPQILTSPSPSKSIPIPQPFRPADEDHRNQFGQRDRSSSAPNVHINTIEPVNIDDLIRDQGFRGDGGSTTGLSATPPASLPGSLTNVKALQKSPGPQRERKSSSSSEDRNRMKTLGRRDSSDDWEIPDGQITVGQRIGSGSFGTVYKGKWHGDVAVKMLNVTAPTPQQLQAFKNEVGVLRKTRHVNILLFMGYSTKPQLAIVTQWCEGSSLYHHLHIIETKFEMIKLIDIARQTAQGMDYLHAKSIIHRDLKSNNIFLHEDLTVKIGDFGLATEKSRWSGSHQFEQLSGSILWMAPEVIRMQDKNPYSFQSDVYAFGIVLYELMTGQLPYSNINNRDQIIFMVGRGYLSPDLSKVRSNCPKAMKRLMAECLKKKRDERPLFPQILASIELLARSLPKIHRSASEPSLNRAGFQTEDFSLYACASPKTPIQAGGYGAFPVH
T4 sequence (P17948 27-1338): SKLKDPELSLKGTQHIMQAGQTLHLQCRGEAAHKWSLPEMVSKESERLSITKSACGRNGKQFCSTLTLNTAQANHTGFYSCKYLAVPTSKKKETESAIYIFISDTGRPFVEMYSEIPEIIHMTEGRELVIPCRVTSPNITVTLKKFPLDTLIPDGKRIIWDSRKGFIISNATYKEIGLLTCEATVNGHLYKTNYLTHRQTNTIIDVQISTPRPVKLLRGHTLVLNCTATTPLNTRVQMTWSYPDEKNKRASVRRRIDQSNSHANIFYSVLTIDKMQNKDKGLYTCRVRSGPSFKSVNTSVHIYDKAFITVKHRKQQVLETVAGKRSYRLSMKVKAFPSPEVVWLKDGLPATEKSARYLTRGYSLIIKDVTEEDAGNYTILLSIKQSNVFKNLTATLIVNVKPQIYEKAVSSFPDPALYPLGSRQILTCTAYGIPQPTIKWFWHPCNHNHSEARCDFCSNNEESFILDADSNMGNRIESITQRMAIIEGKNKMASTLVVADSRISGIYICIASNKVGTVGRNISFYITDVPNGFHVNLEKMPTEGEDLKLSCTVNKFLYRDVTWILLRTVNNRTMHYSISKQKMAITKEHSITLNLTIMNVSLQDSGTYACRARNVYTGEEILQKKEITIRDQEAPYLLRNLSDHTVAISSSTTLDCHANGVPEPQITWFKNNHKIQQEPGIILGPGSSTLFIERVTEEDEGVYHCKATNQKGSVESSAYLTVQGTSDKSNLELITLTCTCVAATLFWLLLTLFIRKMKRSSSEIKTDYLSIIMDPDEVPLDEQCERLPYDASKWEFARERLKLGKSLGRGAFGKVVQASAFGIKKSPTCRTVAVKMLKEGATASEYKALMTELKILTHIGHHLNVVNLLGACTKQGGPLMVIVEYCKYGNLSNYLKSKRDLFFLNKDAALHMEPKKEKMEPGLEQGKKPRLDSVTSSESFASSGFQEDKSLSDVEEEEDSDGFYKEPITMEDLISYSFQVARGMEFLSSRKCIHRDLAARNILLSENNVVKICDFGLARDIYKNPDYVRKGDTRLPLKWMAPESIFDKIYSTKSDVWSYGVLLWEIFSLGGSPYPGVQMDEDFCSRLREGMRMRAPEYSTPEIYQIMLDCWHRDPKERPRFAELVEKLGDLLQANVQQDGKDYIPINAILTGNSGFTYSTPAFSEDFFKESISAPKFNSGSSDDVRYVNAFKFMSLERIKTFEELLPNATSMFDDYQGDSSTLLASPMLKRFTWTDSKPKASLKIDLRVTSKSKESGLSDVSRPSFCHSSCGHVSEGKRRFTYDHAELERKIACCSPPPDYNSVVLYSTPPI
T7 sequence (Q9Y2T6 whole entry): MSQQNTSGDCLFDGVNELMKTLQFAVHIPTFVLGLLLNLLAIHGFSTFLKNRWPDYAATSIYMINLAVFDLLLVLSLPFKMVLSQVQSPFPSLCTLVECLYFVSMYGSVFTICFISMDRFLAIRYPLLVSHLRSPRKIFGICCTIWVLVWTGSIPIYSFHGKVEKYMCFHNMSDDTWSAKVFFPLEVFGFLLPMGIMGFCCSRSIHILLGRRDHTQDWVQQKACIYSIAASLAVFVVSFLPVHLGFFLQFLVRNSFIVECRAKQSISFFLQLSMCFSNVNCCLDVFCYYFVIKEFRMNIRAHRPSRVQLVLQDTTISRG

As a reminder, the EC50 is the midpoint of the concentration-response curve. Take `CC(C)C[C@H]1C(=O)N(Cc2ccc(C(F)(F)F)cc2)c2ccccc2C(=O)N1Cc1ccc(C(F)(F)F)cc1` [Compound 31, (S)-3-Isobutyl-1,4-bis(4-(trifluoromethyl)benzyl)-3,4-dihydro-1H-benzo[e][1,4]diazepine-2,5-dione]: the IC50 in test [1] is no less than 30 µM; in test [2], no less than 30 µM; in test [3], no less than 30 µM; in [4] it was no less than 30 µM; in test [5], no less than 30 µM; in [6] it was greater than 30 µM. Besides, the IC50 at human CB2R is 9.7 ± 0.67 µM. Moreover, the “intracellular ROS levels” value in the test on A375 cells is reported as “significant concentration-dependent increase in ROS levels”. For the same compound, the EC50 in test [7] is no less than 30 µM.

`CC(C)C[C@@H](C(=O)OCc1ccccc1)N1Cc2ccccc2NC1=O` [Compound 63, Benzyl (S)-4-Methyl-2-(2-oxo-1,4-dihydroquinazolin-3(2H)-yl)pentanoate]: the IC50 was no less than 30 µM in test [1]; no less than 30 µM in test [2]; no less than 30 µM in test [3]; no less than 30 µM in test [4]; no less than 30 µM in test [5]; greater than 30 µM in test [6]. For the same compound, at human CB2R, the IC50 is 6.9 µM and 6.91 µM. For the same compound, in the test with A375 cells, the “intracellular ROS levels” value is “delayed and more moderate effect than compound 31”. Besides, the concentration for a half-maximal effect (EC50) in test [7] is no less than 30 µM.
